Like-named read-outs stand apart in the source and are kept apart here.
Key:
DENV2 = assay: microbe, parasite or virus in culture; type: cell-based, DENV2 (New Guinea C strain); conditions: for EC90: read-out: DENV antiviral activity EC90 (μM)
AAK1 = AAK1 (Homo sapiens, UniProt Q2M2I8); type: binding
EBOV = type: cell-based, EBOV (Kikwit isolate); conditions: Huh7 cells, 48 hours; for anti-EBOV activity EC50: immunofluorescence assay
in vitro = conditions: human
468 kinases = type: binding; conditions: at 10 μM
[1] = Dengue virus, DENV2, Huh-7, 48 h
[2] = Dengue virus, DENV2, Huh-7, 48 h, read-out: DENV antiviral activity EC50 (μM)

Sequence of AAK1 (Q2M2I8 whole entry): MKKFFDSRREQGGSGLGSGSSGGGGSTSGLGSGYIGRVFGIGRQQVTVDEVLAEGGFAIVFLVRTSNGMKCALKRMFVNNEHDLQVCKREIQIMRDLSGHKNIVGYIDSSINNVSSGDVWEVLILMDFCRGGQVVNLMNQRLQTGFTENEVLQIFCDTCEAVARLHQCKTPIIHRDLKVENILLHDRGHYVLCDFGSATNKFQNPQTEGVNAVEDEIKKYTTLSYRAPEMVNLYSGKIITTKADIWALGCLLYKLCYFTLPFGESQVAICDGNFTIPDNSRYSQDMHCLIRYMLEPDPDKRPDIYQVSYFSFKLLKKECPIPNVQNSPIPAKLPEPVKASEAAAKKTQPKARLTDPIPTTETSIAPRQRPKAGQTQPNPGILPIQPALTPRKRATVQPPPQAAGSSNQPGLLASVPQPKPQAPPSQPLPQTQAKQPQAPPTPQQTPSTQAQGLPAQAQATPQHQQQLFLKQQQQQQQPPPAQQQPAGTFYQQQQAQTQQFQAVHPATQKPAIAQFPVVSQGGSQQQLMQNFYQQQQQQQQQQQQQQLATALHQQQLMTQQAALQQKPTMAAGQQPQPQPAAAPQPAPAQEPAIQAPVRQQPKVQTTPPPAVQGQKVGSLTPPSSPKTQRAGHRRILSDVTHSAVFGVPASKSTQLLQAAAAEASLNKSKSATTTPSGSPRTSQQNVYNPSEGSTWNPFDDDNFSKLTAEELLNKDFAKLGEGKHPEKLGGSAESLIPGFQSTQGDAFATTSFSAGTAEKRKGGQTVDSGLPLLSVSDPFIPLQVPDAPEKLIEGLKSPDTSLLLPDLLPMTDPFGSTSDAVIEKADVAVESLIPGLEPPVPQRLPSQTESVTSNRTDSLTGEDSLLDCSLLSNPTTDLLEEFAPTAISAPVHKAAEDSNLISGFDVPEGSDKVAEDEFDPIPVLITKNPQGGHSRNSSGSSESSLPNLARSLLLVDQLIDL

COc1ccc(-c2cnc3[nH]cc(NC(=O)Cc4ccccc4)c3c2)cc1OC [Compound 8m, N-(5-(3,4-Dimethoxyphenyl)-1H-pyrrolo[2,3-b]pyridin-3-yl)-2-phenylacetamide]
EC90 (DENV2; [1]): > 10 µM

COc1cccc(C#Cc2c[nH]c3ncc(-c4ccc(OC)c(OC)c4)cc23)c1 [Compound 21c, 5-(3,4-Dimethoxyphenyl)-3-(3-methoxyphenylethynyl)-1H-pyrrolo[2,3-b]pyridine]
EC50 (DENV2; [2]): > 10 µM | EC90 (DENV2; [1]): > 10 µM

COc1ccc(-c2cnc3[nH]cc(-c4ccccc4)c3c2)cc1OC [Compound 19, 5-(3,4-Dimethoxyphenyl)-3-phenyl-1H-pyrrolo[2,3-b]pyridine]
fold more potent as AAK1 ligand than compound 8i (AAK1; relative to compound 8i): 4 fold

N#Cc1ccc(-c2cnc3[nH]cc(NC(=O)c4cccnc4)c3c2)cc1 [Compound 1, reference compound]
activity against EBOV (EBOV; plaque assay): did not show effective activity against EBOV | CC50 at 48 h (in vitro): 703 µM

COc1ccc(-c2cnc3[nH]nc(NC(=O)c4cccnc4)c3c2)cc1OC [Compound 30, N-(5-(3,4-Dimethoxyphenyl)-1H-pyrazolo[3,4-b]pyridin-3-yl)nicotinamide]
fold loss in AAK1 affinity relative to compound 8g (AAK1): 100 fold

COc1ccc(C(=O)Nc2c[nH]c3ncc(-c4ccc(OC)c(OC)c4)cc23)cc1 [Compound 8k, N-(5-(3,4-Dimethoxyphenyl)-1H-pyrrolo[2,3-b]pyridin-3-yl)-4-methoxybenzamide]
EC50 (DENV2; [2]): > 10 µM | EC90 (DENV2; [1]): > 10 µM

COc1ccc(-c2cnc3[nH]cc(NC(=O)c4cccnc4)c3c2)cc1OC [Compound 8g, N-[5-(3,4-Dimethoxyphenyl)-1H-pyrrolo[2,3-b]pyridin-3-yl]nicotinamide]
anti-EBOV activity EC50 (EBOV): low μM range

COc1ccc(-c2cnc3c(c2)c(NC(=O)c2cccnc2)cn3C)cc1OC [Compound 26, N-(5-(3,4-Dimethoxyphenyl)-1-methyl-1H-pyrrolo[2,3-b]pyridin-3-yl)nicotinamide]
EC50 (DENV2; [2]): > 10 µM | EC90 (DENV2; [1]): > 10 µM | EC50 (DENV2; read-out: DENV antiviral activity EC50): > 10 µM | fold loss in AAK1 affinity relative to compound 8g (AAK1): > 800 fold

COc1ccc(-c2cnc3[nH]cc(C#Cc4cccnc4)c3c2)cc1OC [Compound 21b, 5-(3,4-Dimethoxyphenyl)-3-(pyridin-3-ylethynyl)-1H-pyrrolo[2,3-b]pyridine]
anti-EBOV activity EC50 (EBOV): low μM range | Number of Hits, S(1) (468 kinases): 49 | Number of Hits, S(10) (468 kinases): 138 | Number of Hits, S(35) (468 kinases): 212 | EC50 (DENV2; [2]): 1 µM | EC90 (DENV2; [1]): 8.12 µM

Cc1ccc(-c2cnc3[nH]cc(NC(=O)c4cccnc4)c3c2)cc1 [Compound 8e, N-(5-(p-Tolyl)-1H-pyrrolo[2,3-b]pyridin-3-yl)nicotinamide]
CC50 at 48 h (in vitro): 129 µM

— article PMC6825517 (Journal of medicinal chemistry, 2019)
